Tests used:
[1] = tested on: definitive endoderm cells vs hESCs; assay: Gene chip analysis (Affymetrix U133 Plus 2.0) of purified definitive endoderm compared to hESCs; format: cell-based, human
Method: In the following experiment, RNA was isolated from purified definitive endoderm and human embryonic stem cell populations. Gene expression was then analyzed by gene chip analysis of the RNA from each purified population. Q-PCR was also performed to further investigate the potential of genes expressed in definitive endoderm, but not in embryonic stem cells, as a marker for definitive endoderm. Human embryonic stem cells (hESCs) were maintained in DMEM/F12 media supplemented with 20% KnockOut Serum Replacement, 4 ng/mL recombinant human basic fibroblast growth factor (bFGF), 0.1 mM 2-mercaptoethanol, L-glutamine, non-essential amino acids and penicillin/streptomycin. hESCs were differentiated to definitive endoderm by culturing for 5 days in RPMI media supplemented with 100 ng/mL of recombinant human activin A, fetal bovine serum (FBS), and penicillin/streptomycin. The concentration of FBS was varied each day as follows: 0.1% (first day), 0.2% (second day), 2% (days 3-5). Cells were isolated by fluorescence activated cell sorting (FACS) in order to obtain purified populations of hESCs and definitive endoderm for gene expression analysis. […] Cells were dissociated using trypsin/EDTA (Invitrogen, cat#25300-054), washed in phosphate buffered saline (PBS) containing 2% human serum and resuspended in 100% human serum on ice for 10 minutes to block non-specific binding. Staining was carried out for 30 minutes on ice by adding 200 uL of phycoerythrin-conjugated antibody to 5×10^6 cells in 800 uL human serum. Cells were washed twice with 8 mL of PBS buffer and resuspended in 1 mL of the same. FACS isolation was carried out by the core facility of The Scripps Research Institute using a FACS Vantage (BD Biosciences). Cells were collected directly into RLT lysis buffer and RNA was isolated by RNeasy according to the manufacturers instructions (Qiagen). Purified RNA was submitted in duplicate to Expression Analysis (Durham, N.C.) for generation of the expression profile data using the Affymetrix platform and U133 Plus 2.0 high-density oligonucleotide arrays. Data presented is a group comparison that identifies genes differentially expressed between the two populations, hESCs and definitive endoderm. […] The “Gene_Symbol” column refers to the unique name given to the gene by the HUGO Gene Nomenclature Committee. The “Raw Fold Change” column refers to the fold difference in signal for each gene in definitive endoderm compared to hESCs. The “Unigene,” “LocusLink,” and “OMIM” columns refer to identifiers that are descriptive and functional annotations derived from current National Center for Biotechnology Information (NCBI) releases of the UniGene, LocusLink, OMIM, and HomoloGene publicly available databases. […]

[2] = tested on: human definitive endoderm cells; assay: Differentiation factor screening: Q-PCR of albumin, PROX1 and TITF1; format: cell-based
Method: To exemplify the differentiation factor screening methods described herein, populations of human definitive endoderm cells produced using the methods described herein were separately provided with several candidate differentiation factors while determining the normalized expression levels of certain marker gene products at various time points.
Human definitive endoderm cells were produced as described in the foregoing Examples. In brief, hESCs cells were grown in the presence of 100 ng/ml activin A in low serum RPMI medium for four days, wherein the fetal bovine serum (FBS) concentration on day 1 was 0%, on day 2 was 0.2% and on days 3-4 was 2%. After formation of definitive endoderm, beginning on day 5 and ending on day 10, cell populations maintained in individual plates in RPMI containing 0.2% FBS were treated with one of: Wnt3A at 20 ng/ml, FGF2 at 5 ng/ml or FGF2 at 100 ng/ml. The expression of marker gene products for albumin, PROX1 and TITF1 were quantitated using Q-PCR.

[3] = tested on: definitive endoderm cells; assay: Maintenance and expansion of definitive endoderm cells in culture in the presence of activin; format: cell-based, human
Excerpt: Definitive endoderm cells produced by methods described herein have been maintained and expanded in culture in the presence of activin for greater than 50 days without appreciable differentiation. In such cases, SOX17, CXCR4, MIXL1, GATA4, HNF3β expression is maintained over the culture period. Additionally, TM, SPARC, OCT4, AFP, SOX7, ZIC1 and BRACH were not detected in these cultures. It is likely that such cells can be maintained and expanded in culture for substantially longer than 50 days without appreciable differentiation.

hESCs (hESCyt-25) = assay: Q-PCR gene expression assay of marker genes in differentiating hESCs; format: cell-based, human; conditions: Wnt3a added to activin A and activin B treated cultures; FIG. 23
Method: In the following experiments, real-time quantitative RT-PCR (Q-PCR) was the primary assay used for screening the effects of various treatments on HESC differentiation. In particular, real-time measurements of gene expression were analyzed for multiple marker genes at multiple time points by Q-PCR. Marker genes characteristic of the desired as well as undesired cell types were evaluated to gain a better understanding of the overall dynamics of the cellular populations. The strength of Q-PCR analysis includes its extreme sensitivity and relative ease of developing the necessary markers, as the genome sequence is readily available. Furthermore, the extremely high sensitivity of Q-PCR permits detection of gene expression from a relatively small number of cells within a much larger population. In addition, the ability to detect very low levels of gene expression provides indications for “differentiation bias” within the population. The bias towards a particular differentiation pathway, prior to the overt differentiation of those cellular phenotypes, is unrecognizable using immunocytochemical techniques. […] Additionally, Q-PCR provides a mechanism by which to evaluate the success of a differentiation protocol in a quantitative format at semi-high throughput scales of analysis.
The approach taken here was to perform relative quantitation using SYBR Green chemistry on a Rotor Gene 3000 instrument (Corbett Research) and a two-step RT-PCR format. Such an approach allowed for the banking of cDNA samples for analysis of additional marker genes in the future, thus avoiding variability in the reverse transcription efficiency between samples.
Primers were designed to lie over exon-exon boundaries or span introns of at least 800 bp when possible, as this has been empirically determined to eliminate amplification from contaminating genomic DNA.
We routinely used Q-PCR to measure the gene expression of multiple markers of target and non-target cell types in order to provide a broad profile description of gene expression in cell samples. The markers relevant for the early phases of hESC differentiation (specifically ectoderm, mesoderm, definitive endoderm and extra-embryonic endoderm) and for which validated primer sets are available are provided below in Table 1. […] This is an important fact since the hESCs were often grown on mouse feeder layers. Most typically, triplicate samples were taken for each condition and independently analyzed in duplicate to assess the biological variability associated with each quantitative determination.
To generate PCR template, total RNA was isolated using RNeasy (Qiagen) and quantitated using RiboGreen (Molecular Probes). Reverse transcription from 350-500 ng of total RNA was carried out using the iScript reverse transcriptase kit (BioRad), which contains a mix of oligo-dT and random primers. Each 20 μL reaction was subsequently diluted up to 100 μL total volume and 3 μL was used in each 10 μL Q-PCR reaction containing 400 nM forward and reverse primers and 5 μL 2×SYBR Green master mix (Qiagen). Two step cycling parameters were used employing a 5 second denature at 85-94° C. (specifically selected according to the melting temp of the amplicon for each primer set) followed by a 45 second anneal/extend at 60° C. Fluorescence data was collected during the last 15 seconds of each extension phase. A three point, 10-fold dilution series was used to generate the standard curve for each run and cycle thresholds (Ct's) were converted to quantitative values based on this standard curve. The quantitated values for each sample were normalized to housekeeping gene performance and then average and standard deviations were calculated for triplicate samples. At the conclusion of PCR cycling, a melt curve analysis was performed to ascertain the specificity of the reaction. A single specific product was indicated by a single peak at the Tm appropriate for that PCR amplicon. […]

[4] = fold difference in gene chip signal (Affymetrix U133 Plus 2.0) for each gene in CXCR4-purified definitive endoderm (5 days, 100 ng/mL activin A) compared to SSEA4-purified hESCs
[5] = fold difference in signal for each gene in definitive endoderm (CXCR4-purified, 5 days 100 ng/mL activin A) compared to hESCs (SSEA4-purified), Affymetrix U133 Plus 2.0

BMP2 was tested, and the “Raw Fold Change” value [1, 4] was 7.76 fold.

With NPPB the “Raw Fold Change” value [1, 5] was 35.43 fold.

With APOA1 the “Raw Fold Change” value [1, 4] was 15.05 fold.

In the case of “FGF2: growth factor; candidate differentiation factor”, the “expression of the TITF1 marker gene as compared to definitive endoderm cells on day 4” value ([2]; 100 ng/ml FGF2, days 7, 9 and 10, FIG. 36C) is reported as “substantially increased”, the “expression of the TITF1 gene product as compared to untreated definitive endoderm” value ([2]; FGF2 at 5 ng/ml, FIG. 36C) is reported as “very little effect” and the “expression of the albumin gene product as compared to definitive endoderm cells on day 4” value ([2]; FGF2 at 5 ng/ml, days 9 and 10, FIG. 36A) is reported as “substantially increased”. The “expression of the albumin gene product as compared to definitive endoderm cells on day 4” value ([2]; FGF2 at 100 ng/ml, days 9 and 10, FIG. 36A) was “not increased”.

With NODAL the “Raw Fold Change” value [1, 5] was 7.89 fold.

In the case of activin, the “time definitive endoderm cells maintained and expanded in culture without appreciable differentiation” value [3] is reported as “greater than 50 days”.

B1: Wnt3A: Wnt family growth factor; candidate differentiation factor (protein, UniProt P56704 19-352, looked up)
Protein Wnt-3a: SYPIWWSLAVGPQYSSLGSQPILCASIPGLVPKQLRFCRNYVEIMPSVAEGIKIGIQECQHQFRGRRWNCTTVHDSLAIFGPVLDKATRESAFVHAIASAGVAFAVTRSCAEGTAAICGCSSRHQGSPGKGWKWGGCSEDIEFGGMVSREFADARENRPDARSAMNRHNNEAGRQAIASHMHLKCKCHGLSGSCEVKTCWWSQPDFRAIGDFLKDKYDSASEMVVEKHRESRGWVETLRPRYTYFKVPTERDLVYYEASPNFCEPNPETGSFGTRDRTCNVSSHGIDGCDLLCCGRGHNARAERRREKCRCVFHWCCYVSCQECTRVYDVHTCK
For B1, the “SOX17 gene expression over that of activins alone” value (hESCs (hESCyt-25)) was “increases” and the “expression of the albumin gene product as compared to untreated definitive endoderm cells” value ([2]; 20 ng/ml Wnt3A, days 9 and 10, FIG. 36A) was “increased”.
